According to US6689883B1, “Substituted pyridines and pyridazines with angiogenesis inhibiting activity” (Bayer Pharmaceuticals Corporation, priority 1999, dated 2004):

What follows are molecules tested against T1, cytosolic kinase domain of KDR kinase (Homo sapiens, UniProt P35968) (assay: KDR Assay (ELISA, poly(Glu4;Tyr1) phosphorylation)). Settings: 3.3 μM ATP, 60 minutes at room temperature.
T1 construct: The cytosolic kinase domain of KDR kinase was expressed as a 6His fusion protein in Sf9 insect cells; 6His; made in house; host or cells: Sf9 insect cells
T1 sequence (P35968 834-1162 limits assumed): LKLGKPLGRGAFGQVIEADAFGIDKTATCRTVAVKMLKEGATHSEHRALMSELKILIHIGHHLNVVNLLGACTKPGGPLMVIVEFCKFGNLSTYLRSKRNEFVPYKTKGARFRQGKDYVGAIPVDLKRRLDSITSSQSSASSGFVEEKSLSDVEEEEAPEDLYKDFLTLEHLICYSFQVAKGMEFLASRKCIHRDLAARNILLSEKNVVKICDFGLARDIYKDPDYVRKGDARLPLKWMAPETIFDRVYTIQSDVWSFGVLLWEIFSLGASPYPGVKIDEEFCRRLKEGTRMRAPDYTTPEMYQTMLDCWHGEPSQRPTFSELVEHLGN
Type: biochemical
Experimental: The cytosolic kinase domain of KDR kinase was expressed as a 6His fusion protein in Sf9 insect cells. The KDR kinase domain fusion protein was purified over a Ni++ chelating column. Ninety-six well ELISA plates were coated with 5 μg poly(Glu4;Tyr1) (Sigma Chemical Co., St Louis, Mo.) in 100 μl HEPES buffer (20 mM HEPES, pH 7.5, 150 mM NaCl, 0.02% Thimerosal) at 4° overnight. Before use, the plate was washed with HEPES, NaCl buffer and the plates were blocked with 1% BSA, 0.1% Tween 20 in HEPES, NaCl buffer.
Test compounds were serially diluted in 100% DMSO from 4 mM to 0.12 μM in half-log dilutions. These dilutions were further diluted twenty fold in H2O to obtain compound solutions in 5% DMSO. Following loading of the assay plate with 85 μl of assay buffer (20 mM HEPES, pH 7.5, 100 mM KCl, 10 mM MgCl2, 3 mM MnCl2, 0.05% glycerol, 0.005% Triton X-100, 1 mM-mercaptoethanol, with or without 3.3 μM ATP), 5 μl of the diluted compounds were added to a final assay volume of 100 μl. Final concentrations were between 10 μM, and 0.3 nM in 0.25% DMSO. The assay was initiated by the addition of 10 μl (30 ng) of KDR kinase domain.
The assay was incubated with test compound or vehicle alone with gentle agitation at room temperature for 60 minutes. The wells were washed and phosphotyrosines (PY) were probed with an anti-phosphotyrosine (PY), mAb clone 4G10 (Upstate Biotechnology, Lake Placid, N.Y.). PY/anti-PY complexes were detected with an anti-mouse IgG/HRP conjugate (Amersham International plc, Buckinghamshire, England). Phosphotyrosine was quantitated by incubating with 100 μl 3,3′,5,5′tetramethylbenzidine solution (Kirkegaard and Perry, TMB Microwell 1 Component peroxidase substrate). Color development was arrested by the addition of 100 μl 1% HCl-based stop solution (Kirkegaard and Perry, TMB 1 Component Stop Solution).
Optical densities were determined spectrophotometrically at 450 nm in a 96-well plate reader, SpectraMax 250 (Molecular Devices). Background (no ATP in assay) OD values were subtracted from all ODs and the percent inhibition was calculated according to the equation: [formula]

IC50 | Compound
≤ 100 nM | CNC(=O)c1cc(COc2nnc(Nc3ccc(Br)cc3)c3ccoc23)ccn1 [Example 38]
≤ 100 nM | NC(=O)c1cc(Cc2cnc(Nc3ccc(Cl)cc3)c3ccccc23)ccn1 [Example 12, 1-(4-chlorophenylamino)-4-(2-aminocarbonyl-4-pyridylmethyl)isoquinoline]
≤ 100 nM | CNC(=O)c1cc(COc2nnc(Nc3ccc(OC)cc3)c3ccsc23)ccn1 [Example 69]
≤ 100 nM | CNC(=O)c1cc(COc2nnc(Nc3ccc(Br)cc3)c3ccsc23)ccn1 [Example 72]
≤ 100 nM | CNC(=O)c1cc(COc2nnc(Nc3ccc(O)cc3)c3ccoc23)ccn1 [Example 57]
≤ 100 nM | Clc1ccc(Nc2ncc(Sc3ccncc3)c3ccccc23)cc1 [Example 1, 1-(4-chlorophenylamino)-4-(4-pyridylthio)isoquinoline]
100 to 1000 nM | Cc1ccc(Nc2ncc(Cc3ccncc3)c3ccccc23)cc1F [Example 7, 1-(3-fluoro-4-methylphenylamino)-4-(4-pyridylmethyl)-isoquinoline]
≤ 100 nM | O=C(NC1CC1)c1cc(COc2nnc(Nc3ccc(Cl)cc3)c3ccoc23)ccn1 [Example 82B]
≤ 100 nM | CNC(=O)c1cc(Cc2cnc(Nc3ccc(Cl)cc3)c3ccccc23)ccn1 [Example 13, 1-(4-chlorophenylamino)-4-(2-methylaminocarbonyl-4-pyridylmethyl)isoquinoline]
≤ 100 nM | CNC(=O)c1cc(COc2nnc(Nc3ccccc3)c3ccoc23)ccn1 [Example 59]
≤ 100 nM | CNC(=O)c1cc(COc2nnc(Nc3ccc(C)cc3)c3ccoc23)ccn1 [Example 39]
≤ 100 nM | CCNC(=O)c1cc(COc2nnc(Nc3ccc(Cl)cc3)c3ccoc23)ccn1 [Example 82D]
≤ 100 nM | NC(=O)c1cc(COc2nnc(Nc3ccc(Cl)cc3)c3ccoc23)ccn1 [Example 16, 4-(4-chlorophenylamino)-7-(2-aminocarbonyl-4-pyridylmethoxy)furo-[2,3-d]pyridazine]
≤ 100 nM | CNC(=O)c1cc(COc2nnc(Nc3ccc(OC)cc3)c3ccoc23)ccn1 [Example 20, 4-(4-methoxyphenylamino)-7-(2-methylaminocarbonyl-4-pyridylmethoxy)furo-[2,3-d]pyridazine]
≤ 100 nM | O=C(NCCO)c1cc(COc2nnc(Nc3ccc(Cl)cc3)c3ccoc23)ccn1 [Example 82C]
≤ 100 nM | CNC(=O)c1cc(COc2nnc(Nc3ccc(F)cc3)c3ccoc23)ccn1 [Example 37]
≤ 100 nM | Clc1ccc(Nc2ncc(Cc3ccncc3)c3ccccc23)cc1 [Example 4, 1-(4-chlorophenylamino)-4-(4-pyridylmethyl)isoquinoline]

Second part, the molecule before the results:

Compound | IC50
c1cc2c(Nc3ccc4[nH]ncc4c3)nnc(Nc3ccc4[nH]ncc4c3)c2o1 [Example 30] | > 1000 nM
CNC(=O)c1cc(COc2nnc(Nc3ccc(F)c(F)c3)c3ccoc23)ccn1 [Example 47] | ≤ 100 nM
CNC(=O)c1cc(COc2nnc(Nc3cccc(OC)c3)c3ccoc23)ccn1 [Example 51] | ≤ 100 nM
CNC(=O)c1cc(COc2nnc(Nc3cccc(C)c3)c3ccoc23)ccn1 [Example 40] | ≤ 100 nM
CNC(=O)c1cc(COc2nnc(Nc3ccc(N(C)C)cc3)c3ccoc23)ccn1 [Example 41] | > 1000 nM
c1cc2c(Nc3ccc4nn[nH]c4c3)nnc(Nc3ccc4nn[nH]c4c3)c2o1 [Example 29] | > 1000 nM
c1cc2c(Nc3ccc4nn[nH]c4c3)nnc(Nc3ccc4nn[nH]c4c3)c2s1 [Example 26] | > 1000 nM
CNC(=O)c1cc(COc2nnc(Nc3ccc4c(c3)CCO4)c3ccsc23)ccn1 [Example 66] | ≤ 100 nM
CNC(=O)c1cc(COc2nnc(Nc3ccc(C)c(OC)c3)c3ccoc23)ccn1 [Example 60] | ≤ 100 nM
CNC(=O)c1cc(COc2nnc(Nc3ccc4c(c3)CCO4)c3ccoc23)ccn1 [Example 65] | ≤ 100 nM
CNC(=O)c1cc(COc2nnc(Nc3ccc4c(c3)OCO4)c3ccoc23)ccn1 [Example 52] | ≤ 100 nM
c1nc2c(Nc3ccc4nn[nH]c4c3)nnc(Nc3ccc4nn[nH]c4c3)c2[nH]1 [Example 31] | > 1000 nM
COc1cc(Nc2nnc(Nc3ccc4ncsc4c3)c3sccc23)cc(OC)c1OC [Example 80] | > 1000 nM
COc1ccc(Nc2nnc(OCc3ccncc3)c3occc23)cc1 [Example 56] | ≤ 100 nM
CNC(=O)c1cc(COc2nnc(Nc3ccc4c(c3)CCC4)c3ccoc23)ccn1 [Example 49] | ≤ 100 nM
Cc1ccc(Nc2nnc(Nc3ccc4ncsc4c3)c3sccc23)c(C)c1 [Example 78] | ≤ 100 nM
CNC(=O)c1cc(COc2nnc(Nc3ccc(OC(F)(F)F)cc3)c3ccsc23)ccn1 [Example 70] | ≤ 100 nM
COc1ccc(Nc2nnc(OCc3ccnc(C(N)=O)c3)c3occc23)cc1 [Example 22, 4-(4-methoxyphenylamino)-7-(2-aminocarbonyl4-pyridylmethoxy)furo-[2,3-d]pyridazine] | ≤ 100 nM
Brc1ccc2c(c1)CCN2c1nnc(OCc2ccncc2)c2occc12 [Example 19, 4-(5-bromoindolin-1-yl)-7-(4-pyridylmethoxy)furo[2,3-d]pyridazine] | ≤ 100 nM

Compound | IC50
Brc1ccc2c(c1)CCN2c1nnc(Nc2ccc3ncsc3c2)c2ccccc12 [Example 97] | ≤ 100 nM
CNC(=O)c1cc(COc2nnc(Nc3ccc(C(F)(F)F)cc3)c3ccoc23)ccn1 [Example 42] | ≤ 100 nM
c1nc2ccc(Nc3nnc(Nc4ccc5ncsc5c4)c4sccc34)cc2s1 [Example 75] | ≤ 100 nM
CNC(=O)c1cc(COc2nnc(Nc3cc(C)cc(C)c3)c3ccoc23)ccn1 [Example 54] | ≤ 100 nM
CNC(=O)c1cc(COc2nnc(Nc3ccc4sc(C)nc4c3)c3ccoc23)ccn1 [Example 62] | ≤ 100 nM
CNC(=O)c1cc(COc2nnc(Nc3ccc(C(F)(F)F)cc3)c3ccsc23)ccn1 [Example 71] | ≤ 100 nM
CNC(=O)c1cc(COc2nnc(Nc3ccc4c(c3)OCO4)c3ccsc23)ccn1 [Example 74] | ≤ 100 nM
CN(C)C(=O)c1cc(COc2nnc(Nc3ccc(Cl)cc3)c3ccoc23)ccn1 [Example 81] | > 1000 nM
Clc1ccc(Nc2nnc(Nc3ccc4ncsc4c3)c3sccc23)cc1 [Example 17, 4-(4-chlorophenylamino)-7-(benzothiazol-6-ylamino)thieno[2,3-d]pyridazine] | ≤ 100 nM
CNC(=O)c1cc(COc2nnc(Nc3cccc(C)c3)c3ccsc23)ccn1 [Example 68] | ≤ 100 nM
c1nc2c(Nc3ccc4ncsc4c3)nnc(Nc3ccc4ncsc4c3)c2[nH]1 [Example 33] | > 1000 nM
c1nc2c(Nc3ccc4[nH]ncc4c3)nnc(Nc3ccc4[nH]ncc4c3)c2[nH]1 [Example 32] | > 1000 nM
CNC(=O)c1cc(COc2nnc(Nc3ccc(OC)c(Cl)c3)c3ccoc23)ccn1 [Example 44] | ≤ 100 nM
FC1(F)Oc2ccc(Nc3nnc(Nc4ccc5ncsc5c4)c4ccccc34)cc2O1 [Example 98] | ≤ 100 nM
CNC(=O)c1cc(COc2nnc(Nc3ccc(Cl)c(Cl)c3)c3ccoc23)ccn1 [Example 53] | ≤ 100 nM
CNC(=O)c1cc(COc2nnc(Nc3ccc(OC(F)(F)F)cc3)c3ccoc23)ccn1 [Example 43] | ≤ 100 nM
c1ccc2c(Nc3ccc4nn[nH]c4c3)nnc(Nc3ccc4nn[nH]c4c3)c2c1 [Example 94] | > 1000 nM
CNC(=O)c1cc(COc2nnc(Nc3ccc4c(c3)CCC4)c3ccsc23)ccn1 [Example 73] | ≤ 100 nM
